Test results as given in ChEMBL document CHEMBL5331058, “Review of bioactivity and structure-activity relationship on baicalein (5,6,7-trihydroxyflavone) and wogonin (5,7-dihydroxy-8-methoxyflavone) derivatives: Structural modifications inspired from flavonoids in Scutellaria baicalensis” (Eur J Med Chem, 2022).
Converted amounts (≈) assume the structure as drawn.

Key:
Candida albicans = test: Antifungal activity against Candida albicans assessed as reduction in fungal growth incubated for 16 hrs by microdilution method; type: functional
Staphylococcus aureus = test: Antibacterial activity against Staphylococcus aureus assessed as bacterial growth inhibition incubated for 16 hrs; type: functional
Escherichia coli = test: Antibacterial activity against Escherichia coli assessed as bacterial growth inhibition; type: functional
Acetylcholinesterase [1] = biological target: T1, Acetylcholinesterase (Rattus norvegicus, UniProt P37136); test: Inhibition of rat cortex homogenate AChE preincubated for 5 mins followed by compound addition and measured after 15 mins by Ellman's method
T1 sequence (P37136 whole entry): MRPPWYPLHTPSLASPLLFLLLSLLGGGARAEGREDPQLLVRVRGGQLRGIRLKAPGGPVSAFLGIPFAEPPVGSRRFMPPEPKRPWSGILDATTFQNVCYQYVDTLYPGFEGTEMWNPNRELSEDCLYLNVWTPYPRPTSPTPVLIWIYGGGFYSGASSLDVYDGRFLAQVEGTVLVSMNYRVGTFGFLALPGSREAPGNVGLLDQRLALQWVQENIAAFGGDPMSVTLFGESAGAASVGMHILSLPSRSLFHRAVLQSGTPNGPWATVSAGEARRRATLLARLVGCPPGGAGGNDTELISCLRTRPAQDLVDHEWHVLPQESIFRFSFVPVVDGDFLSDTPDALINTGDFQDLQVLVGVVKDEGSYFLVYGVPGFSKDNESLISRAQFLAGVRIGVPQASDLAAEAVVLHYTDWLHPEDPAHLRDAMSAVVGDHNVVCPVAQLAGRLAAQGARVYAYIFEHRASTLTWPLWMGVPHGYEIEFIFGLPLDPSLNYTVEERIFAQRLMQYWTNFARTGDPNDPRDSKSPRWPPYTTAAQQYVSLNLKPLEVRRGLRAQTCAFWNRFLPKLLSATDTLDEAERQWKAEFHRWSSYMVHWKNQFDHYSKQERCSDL

Butyrylcholinesterase = Butyrylcholinesterase (Rattus norvegicus, UniProt Q9JKC1); test: Inhibition of rat serum homogenate BuChE preincubated for 5 mins followed by compound addition and measured after 15 mins by Ellman's method; type: cell-free
Butyrylcholinesterase, sequence (Q9JKC1 whole entry): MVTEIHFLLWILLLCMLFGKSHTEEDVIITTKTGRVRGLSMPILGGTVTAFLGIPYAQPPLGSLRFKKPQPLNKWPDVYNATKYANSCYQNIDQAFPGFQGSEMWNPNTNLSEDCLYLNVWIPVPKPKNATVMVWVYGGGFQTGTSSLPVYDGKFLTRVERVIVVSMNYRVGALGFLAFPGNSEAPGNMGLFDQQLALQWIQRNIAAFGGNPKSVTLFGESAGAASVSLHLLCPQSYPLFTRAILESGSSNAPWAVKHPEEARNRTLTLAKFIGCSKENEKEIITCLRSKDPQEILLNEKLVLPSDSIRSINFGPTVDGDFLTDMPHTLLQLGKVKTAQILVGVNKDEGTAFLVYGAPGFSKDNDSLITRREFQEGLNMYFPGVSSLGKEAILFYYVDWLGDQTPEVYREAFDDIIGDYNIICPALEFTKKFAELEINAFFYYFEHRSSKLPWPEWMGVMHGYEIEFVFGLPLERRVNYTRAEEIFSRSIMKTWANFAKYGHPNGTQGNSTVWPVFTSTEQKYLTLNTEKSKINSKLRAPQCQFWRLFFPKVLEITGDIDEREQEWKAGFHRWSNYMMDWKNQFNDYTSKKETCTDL

Acetylcholinesterase [2] = biological target: T2, Acetylcholinesterase (Homo sapiens, UniProt P22303); test: Inhibition of AChE (unknown origin)
T2 sequence (P22303 whole entry): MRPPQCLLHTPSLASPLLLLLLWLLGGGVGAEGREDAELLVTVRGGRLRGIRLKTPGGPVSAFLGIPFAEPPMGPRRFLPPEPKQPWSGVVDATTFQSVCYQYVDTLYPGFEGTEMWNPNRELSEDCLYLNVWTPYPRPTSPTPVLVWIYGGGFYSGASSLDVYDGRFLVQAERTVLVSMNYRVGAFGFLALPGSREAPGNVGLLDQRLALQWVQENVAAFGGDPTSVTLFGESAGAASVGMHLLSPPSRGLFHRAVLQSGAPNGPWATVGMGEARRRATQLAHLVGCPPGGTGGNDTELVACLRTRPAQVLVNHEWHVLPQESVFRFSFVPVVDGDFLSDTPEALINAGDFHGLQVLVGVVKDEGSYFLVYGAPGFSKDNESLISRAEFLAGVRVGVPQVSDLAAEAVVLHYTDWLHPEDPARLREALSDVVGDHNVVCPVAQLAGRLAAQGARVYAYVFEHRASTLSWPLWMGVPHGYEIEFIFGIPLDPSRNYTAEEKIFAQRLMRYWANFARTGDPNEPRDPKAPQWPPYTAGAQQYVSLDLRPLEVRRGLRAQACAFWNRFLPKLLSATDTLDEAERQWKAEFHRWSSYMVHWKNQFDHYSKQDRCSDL

[3] = biological target: Amyloid-beta precursor protein (Homo sapiens) (UniProt P05067); test: Inhibition of self-induced amyloid beta (unknown origin) aggregation relative to control; conditions: concentration not given here
Amyloid-beta precursor protein (Homo sapiens), sequence (P05067 whole entry): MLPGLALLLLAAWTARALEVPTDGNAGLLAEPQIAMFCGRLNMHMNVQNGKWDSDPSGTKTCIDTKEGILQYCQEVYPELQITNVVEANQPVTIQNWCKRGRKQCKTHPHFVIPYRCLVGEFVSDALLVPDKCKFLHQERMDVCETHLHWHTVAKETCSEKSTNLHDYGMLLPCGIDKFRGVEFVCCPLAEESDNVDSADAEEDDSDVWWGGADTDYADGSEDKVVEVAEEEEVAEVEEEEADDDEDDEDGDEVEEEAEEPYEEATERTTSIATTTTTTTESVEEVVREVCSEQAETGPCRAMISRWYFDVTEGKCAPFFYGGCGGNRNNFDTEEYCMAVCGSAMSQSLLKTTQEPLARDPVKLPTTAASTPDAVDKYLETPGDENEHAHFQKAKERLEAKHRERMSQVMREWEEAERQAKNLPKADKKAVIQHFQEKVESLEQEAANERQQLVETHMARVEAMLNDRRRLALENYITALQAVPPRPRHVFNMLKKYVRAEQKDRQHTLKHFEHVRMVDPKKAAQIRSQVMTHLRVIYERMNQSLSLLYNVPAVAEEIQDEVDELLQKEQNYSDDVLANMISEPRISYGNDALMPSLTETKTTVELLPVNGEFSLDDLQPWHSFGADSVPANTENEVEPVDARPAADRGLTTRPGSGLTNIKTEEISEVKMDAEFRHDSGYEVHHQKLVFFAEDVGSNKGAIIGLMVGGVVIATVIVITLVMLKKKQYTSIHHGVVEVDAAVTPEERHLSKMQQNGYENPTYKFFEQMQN

[4] = biological target: Amyloid-beta precursor protein (Homo sapiens) (UniProt P05067); test: Inhibition of Cu2+ induced amyloid beta (unknown origin) aggregation relative to control; conditions: concentration not given here
[5] = biological target: Amyloid-beta precursor protein (Homo sapiens) (UniProt P05067); test: Disaggregation of self-induced amyloid beta (unknown origin) fibrils relative to control
[6] = biological target: Amyloid-beta precursor protein (Homo sapiens) (UniProt P05067); test: Disaggregation of Cu2+ induced amyloid beta (unknown origin) fibrils relative to control
Acetylcholinesterase [7] = biological target: Acetylcholinesterase (Electrophorus electricus, UniProt O42275); test: Inhibition of electric eel AChE
Acetylcholinesterase (Electrophorus electricus, UniProt O42275), sequence (O42275 whole entry): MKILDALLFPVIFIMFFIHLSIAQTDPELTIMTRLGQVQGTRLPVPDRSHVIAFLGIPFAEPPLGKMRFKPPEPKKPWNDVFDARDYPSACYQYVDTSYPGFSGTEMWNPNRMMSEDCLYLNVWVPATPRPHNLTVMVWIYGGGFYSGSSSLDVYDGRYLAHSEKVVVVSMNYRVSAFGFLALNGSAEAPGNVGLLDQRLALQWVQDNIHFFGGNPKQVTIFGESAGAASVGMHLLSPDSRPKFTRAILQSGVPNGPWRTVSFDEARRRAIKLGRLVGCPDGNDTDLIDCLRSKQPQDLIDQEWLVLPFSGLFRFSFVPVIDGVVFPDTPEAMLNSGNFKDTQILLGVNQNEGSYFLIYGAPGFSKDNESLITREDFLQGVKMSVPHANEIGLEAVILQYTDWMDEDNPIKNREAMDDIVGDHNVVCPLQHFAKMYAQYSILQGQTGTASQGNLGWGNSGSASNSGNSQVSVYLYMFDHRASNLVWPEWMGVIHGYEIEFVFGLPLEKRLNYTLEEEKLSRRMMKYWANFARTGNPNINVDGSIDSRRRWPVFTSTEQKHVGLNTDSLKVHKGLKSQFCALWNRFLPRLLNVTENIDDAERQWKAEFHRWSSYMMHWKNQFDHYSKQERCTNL

Acetylcholinesterase [8] = biological target: T2, Acetylcholinesterase; test: Inhibition of human AChE
Alpha glucosidase [9] = biological target: T3, Alpha glucosidase (Homo sapiens, UniProt O43451+P10253+P14410+Q2M2H8); test: Inhibition of alpha glucosidase (unknown origin); type: protein assay
HGC-27 = test: Antiproliferative activity against human HGC-27 cells assessed as reduction in cell viability incubated for 48 hrs by MTT assay; type: functional, cell-based; conditions: HGC-27, 48 h
MGC-803 = test: Antiproliferative activity against human MGC-803 cells assessed as reduction in cell viability incubated for 48 hrs by MTT assay; type: functional, cell-based; conditions: MGC-803, 48 h
PC-12 [10] = test: Cytotoxicity against H2O2-induced cell damage in rat PC12 cells assessed as reduction in cell viability at 50 uM incubated for 24 hrs by MTT assay relative to control; type: functional
[11] = Antioxidant activity assessed as DPPH radical scavenging activity; type: functional
[12] = Aqueous solubility of compound by UV spectroscopy method; type: physicochemical; conditions: water
[13] = Permeability of the compound across blood brain barrier at pH 7.4 incubated for 4 hrs by parallel artificial membrane permeation assay; type: ADME; conditions: pampa, pH 7.4, 4 h
Alpha glucosidase [14] = biological target: T3, Alpha glucosidase; test: Inhibition of alpha glucosidase (unknown origin) spectrophotometric analysis; type: protein assay
HepG2 = test: Antitumor activity against human HepG2 cells assessed as reduction in cell viability at 25 uM by colorimetric MTT assay relative to control; type: functional
DU-145 = test: Anticancer activity against human DU-145 cells assessed as inhibition of cell growth at 100 uM by colorimetric MTT assay relative to control; type: functional; parameters: scale not given: the % may be the effect or the level left
Influenza A virus = test: Antiviral activity against influenza A virus H1N1 infected in MDCK cells assessed as reduction in virus induced cytopathic effect by CPE assay; type: functional, organism-based
Acetylcholinesterase [15] = biological target: T2, Acetylcholinesterase; test: Inhibition of human AChE by Ellman's spectrophotometric method
SH-SY5Y [16] = test: Neuroprotective activity against H2O2-induced cell damage in human SH-SY5Y cells assessed as cell viability preincubated for 36 hrs followed by H2O2 addition and measured after 12 hrs by MTT assay; type: functional, cell-based
SH-SY5Y [17] = test: Neuroprotective activity against H2O2-induced cell damage in human SH-SY5Y cells assessed as reduction in cell viability preincubated for 36 hrs followed by H2O2 addition and measured after 12 hrs by MTT assay; type: functional, cell-based
PC-12 [18] = test: Antioxidant activity in H2O2-induced cell damage in rat PC12 cells at 50 uM; type: functional
[19] = biological target: Thymic stromal lymphopoietin (Homo sapiens) (UniProt Q969D9); test: Inhibition of N-terminal FLAG tagged/C-terminal 6 His tagged human TSLP at 1 uM preincubated for 2 hrs followed by compound addition and measured after 18 hrs by ELISA method relative to control; conditions: time 20.0 hrs
Thymic stromal lymphopoietin (Homo sapiens), sequence (Q969D9 whole entry): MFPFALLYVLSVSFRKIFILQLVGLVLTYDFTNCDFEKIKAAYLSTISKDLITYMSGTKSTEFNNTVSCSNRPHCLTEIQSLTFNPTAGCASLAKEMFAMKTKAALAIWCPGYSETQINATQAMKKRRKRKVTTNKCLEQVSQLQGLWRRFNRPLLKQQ

Compound: CC(C)=CCCC(C)CCOC(=O)[C@H]1O[C@@H](Oc2cc3oc(-c4ccccc4)cc(=O)c3c(O)c2O)[C@H](O)[C@@H](O)[C@@H]1O (stereo not given in full)
- MIC (Candida albicans): 400 µM (≈ 234 µg/mL)
- MIC (Staphylococcus aureus): 800 µM (≈ 468 µg/mL)
- MIC (Escherichia coli): 3200 µM (≈ 1870 µg/mL)

Compound: CCN(CC)C(=O)Oc1ccc(-c2cc(=O)c3c(O)c(OC)c(OC)cc3o2)cc1
- IC50 (Acetylcholinesterase [1]): 1.2 µM
- IC50 (Butyrylcholinesterase): 22.1 µM

Compound: CCN(C)C(=O)Oc1ccc(-c2cc(=O)c3c(O)c(O)c(OC(=O)N[C@@H](Cc4ccccc4)C(=O)OC(C)(C)C)cc3o2)cc1
- IC50 (Acetylcholinesterase [2]): 4.73 µM
- inhibition [3]: 89.2%
- inhibition [4]: 86.2%
- Activity [5]: 84.2%
- Activity [6]: 78.7%
- IC50 (Acetylcholinesterase [7]): 6.01 µM
- IC50 (Acetylcholinesterase [8]): 7.91 µM

Compound: COc1c(C(C)c2ccc(O)cc2O)cc2oc(-c3ccccc3)cc(=O)c2c1O (stereo not given)
- IC50 (Alpha glucosidase [9]): 39.21 µM

Compound: COC(=O)c1cc(Br)ccc1OCCCOc1ccc(-c2cc(=O)c3c(OC)c(OC)c(OC)cc3o2)cc1
- IC50 (HGC-27): 10.3 µM
- IC50 (MGC-803): 17.2 µM

Compound: COc1c(O)cc2oc(-c3ccc(O)cc3)cc(=O)c2c1O [HISPIDULIN]
- inhibition at 50 µM (PC-12 [10]): 94.2%
- IC50 [11]: 19.3 µM
- solubility [12]: 15.3 µg/mL (≈ 51.1 µM)

Compound: CN1C(=O)[C@@H](Cc2ccc(NC(=O)[C@H]3O[C@@H](Oc4cc5oc(-c6ccccc6)cc(=O)c5c(O)c4O)[C@H](O)[C@@H](O)[C@@H]3O)cc2)NC(=O)[C@H]1Cc1ccc2ccccc2c1
- BBB [13]: 7.22%

Compound: CCN(CCCCOc1ccc(-c2cc(=O)c3c(O)c(OC)c(OC)cc3o2)cc1)Cc1ccccc1OC
- IC50 (Alpha glucosidase [14]): 25.78 µM

Compound: COc1cc2oc(-c3ccc(N)cc3)cc(=O)c2c(OC)c1OC
- Activity (HepG2): <2%
- Activity (DU-145): 60%

Compound: COc1c(O)cc2oc(-c3cccc(Br)c3)cc(=O)c2c1O
- EC50 (Influenza A virus): 4.5 µM

Compound: COc1cc2oc(-c3ccc(NCCNc4c5c(nc6cc(Cl)ccc46)CCCC5)cc3)cc(=O)c2c(OC)c1OC
- IC50 (Acetylcholinesterase [15]): 4.73 µM

Compound: CC(c1cc(O)c2c(=O)cc(-c3ccccc3)oc2c1)c1ccc(O)cc1O (stereo not given)
- IC50 (Alpha glucosidase [9]): 44.11 µM

Compound: COc1c(O)cc2oc(-c3ccccc3Br)cc(=O)c2c1O
- EC50 (Influenza A virus): 4 µM

Compound: O=C(NC(Cc1ccccc1)C(=O)Oc1c(O)cc2oc(-c3ccccc3)cc(=O)c2c1O)OCc1ccccc1 (stereo not given)
- EC50 (SH-SY5Y [16]): 4.31 µM
- EC50 (SH-SY5Y [17]): 24.8 µM

Compound: CC(C)N(CCOc1c(O)cc2oc(-c3ccc(O)cc3)cc(=O)c2c1O)C(C)C
- Activity (PC-12 [18]): 72.12%

Compound: O=c1cc(-c2cccc(-c3ccc(O)cc3)c2)oc2cc(O)cc(O)c12
- inhibition [19]: 77.5%
